Assay results as given in PubChem BioAssay AID248 (DTP/NCI, 2004).
Values joined by “and” are separate entries in the source; they are usually repeats but may differ in a detail not shown here. Equal entries are not always repeated. Inconclusive results and toxic doses are left out. Cut-off read from the data, not from the text of the source: active = T/C of 150% or more; inactive = T/C below 125%.

System: L1210 leukemia ip in BDF1 mice, survival T/C
Assay: NCI In Vivo Anticancer Drug Screen. Data for tumor model L1210 Leukemia (intraperitoneal) in B6D2F1 (BDF1) mice
Conditions: endpoint: mean survival time, higher = longer survival
How it was run: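 Tumor cells were implanted, animals were treated, and survival was followed. The result divides the treated measurement by the vehicle-control measurement.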

[1] = dose: 100.0 mg/kg/injection, schedule: Q01DX009 (ip), vehicle: saline
[2] = dose: 100.0 mg/kg/injection, schedule: Q04DX003 (ip), vehicle: Klucel (hydroxypropylcellulose) (HPC)
[3] = dose: 200.0 mg/kg/injection, schedule: Q04DX003 (ip), vehicle: Klucel (hydroxypropylcellulose) (HPC)
[4] = dose: 400.0 mg/kg/injection, schedule: Q04DX003 (ip), vehicle: Klucel (hydroxypropylcellulose) (HPC)
[5] = dose: 100.0 mg/kg/injection, schedule: Q01DX001 (ip), vehicle: saline
[6] = dose: 200.0 mg/kg/injection, schedule: Q01DX001 (ip), vehicle: saline
[7] = dose: 400.0 mg/kg/injection, schedule: Q01DX001 (ip), vehicle: saline
[8] = dose: 100.0 mg/kg/injection, schedule: Q04DX003 (ip), vehicle: saline with Tween-80
[9] = dose: 200.0 mg/kg/injection, schedule: Q04DX003 (ip), vehicle: saline with Tween-80
[10] = dose: 100.0 mg/kg/injection, schedule: Q01DX001 (ip), vehicle: Klucel (hydroxypropylcellulose) (HPC)
[11] = dose: 200.0 mg/kg/injection, schedule: Q01DX001 (ip), vehicle: Klucel (hydroxypropylcellulose) (HPC)
[12] = dose: 400.0 mg/kg/injection, schedule: Q01DX001 (ip), vehicle: Klucel (hydroxypropylcellulose) (HPC)
[13] = dose: 25.0 mg/kg/injection, schedule: Q01DX009 (ip), vehicle: saline
[14] = dose: 50.0 mg/kg/injection, schedule: Q01DX009 (ip), vehicle: saline
[15] = dose: 75.0 mg/kg/injection, schedule: Q01DX001 (ip), vehicle: saline
[16] = dose: 150.0 mg/kg/injection, schedule: Q01DX001 (ip), vehicle: saline

Measured: T/C

Cc1ccc(S(=O)(=O)Nc2ccc(NS(=O)(=O)c3ccc(C)cc3)cc2)cc1
inactive: [1] 97 % of control | [2] 105 % of control | dose: 200.0 mg/kg/injection, schedule: Q01DX009 (ip), vehicle: saline 94 % of control | [3] 95 % of control | dose: 400.0 mg/kg/injection, schedule: Q01DX009 (ip), vehicle: saline 94 % of control | [4] 101 % of control

CCCC(C)(CO)COC(N)=O (stereo not given)
inactive: [5] 105 % of control | [6] 103 % of control | [7] 111 % of control

C=C(Cl)CN(CC)CCO
inactive: [8] 98 % of control | [9] 102 % of control | dose: 400.0 mg/kg/injection, schedule: Q04DX003 (ip), vehicle: saline with Tween-80 108 % of control

Cc1ccc(Oc2cccc3c2CC[N+](C)(C)C3)cc1
inactive: dose: 6.25 mg/kg/injection, schedule: Q04DX002 (ip), vehicle: Klucel (hydroxypropylcellulose) (HPC) 96 % of control | dose: 12.5 mg/kg/injection, schedule: Q01DX001 (ip), vehicle: Klucel (hydroxypropylcellulose) (HPC) 97 % of control | dose: 12.5 mg/kg/injection, schedule: Q04DX002 (ip), vehicle: Klucel (hydroxypropylcellulose) (HPC) 96 % of control | dose: 25.0 mg/kg/injection, schedule: Q04DX002 (ip), vehicle: Klucel (hydroxypropylcellulose) (HPC) 100 % of control | dose: 50.0 mg/kg/injection, schedule: Q01DX001 (ip), vehicle: Klucel (hydroxypropylcellulose) (HPC) 94 % of control

COc1ccc2oc(=O)[nH]c2c1
inactive: dose: 100.0 mg/kg/injection, schedule: Q01DX001 (ip), vehicle: saline with Tween-80 100 % of control | dose: 200.0 mg/kg/injection, schedule: Q01DX001 (ip), vehicle: saline with Tween-80 100 % of control | dose: 400.0 mg/kg/injection, schedule: Q01DX001 (ip), vehicle: saline with Tween-80 100 % of control

O=C1c2c(cccc2NCCO)Cc2cccc(NCCO)c21
inactive: [10] 102 % of control | [2] 98 % of control | [11] 104 % of control | [3] 93 % of control | [12] 96 % of control | [4] 96 % of control

COC(=O)c1ccc(C(F)(F)F)cc1O
inactive: [2] 97 % of control | [3] 100 % of control | [4] 108 % of control

O=P1(Nc2ccccc2)OCCCN1Cc1ccc(Cl)c(Cl)c1 (stereo not given)
inactive: dose: 50.0 mg/kg/injection, schedule: Q01DX001 (ip), vehicle: saline 96 % of control | [5] 102 % of control | [6] 90 % of control | [7] 102 % of control

NC(=S)N/N=C/c1ccc2c(c1)OCO2
inactive: [8] 95 % of control | [9] 103 % of control

COc1cccc2c(Cl)c(CCl)c(C)nc12
inactive: dose: 12.5 mg/kg/injection, schedule: Q01DX009 (ip), vehicle: saline with Tween-80 97 % of control | dose: 25.0 mg/kg/injection, schedule: Q01DX009 (ip), vehicle: saline with Tween-80 97 % of control | dose: 25.0 mg/kg/injection, schedule: Q04DX003 (ip), vehicle: saline with Tween-80 92 % of control | dose: 50.0 mg/kg/injection, schedule: Q01DX009 (ip), vehicle: saline with Tween-80 92 % of control | dose: 50.0 mg/kg/injection, schedule: Q04DX003 (ip), vehicle: saline with Tween-80 97 % of control | [8] 94 % of control and 96 % of control

NC(=S)N/N=C(/C(=O)O)c1ccc([N+](=O)[O-])cc1
inactive: [10] 93 % of control | [2] 104 % of control | [11] 115 % of control | [3] 98 % of control | [12] 96 % of control | [4] 93 % of control

[N-]=[N+]=Nc1ccc(Cl)cc1C(=O)c1ccccc1
inactive: [13] 120 % of control | dose: 25.0 mg/kg/injection, schedule: Q04DX003 (ip), vehicle: saline 98 % of control | [14] 109 % of control | dose: 50.0 mg/kg/injection, schedule: Q04DX003 (ip), vehicle: saline 104 % of control | [1] 111 % of control | dose: 100.0 mg/kg/injection, schedule: Q04DX003 (ip), vehicle: saline 102 % of control and 113 % of control

O=C(Cc1ccccc1)O/C=C1/CCOC1=O
inactive: dose: 100.0 mg/kg/injection, schedule: Q04DX002 (ip), vehicle: Klucel (hydroxypropylcellulose) (HPC) 91 % of control | dose: 200.0 mg/kg/injection, schedule: Q04DX002 (ip), vehicle: Klucel (hydroxypropylcellulose) (HPC) 91 % of control | dose: 400.0 mg/kg/injection, schedule: Q04DX002 (ip), vehicle: Klucel (hydroxypropylcellulose) (HPC) 94 % of control

CC(=O)Nc1ncnc2c1c(C(N)=O)cn2C1OC(COC(C)=O)C(OC(C)=O)C1OC(C)=O (stereo not given)
inactive: dose: 100.0 mg/kg/injection, schedule: Q01DX001 (ip), vehicle: water 102 % of control

CC(C)OP(=O)(OC=C(Cl)Cl)OC(C)C
inactive: [15] 93 % of control | [16] 91 % of control

O=C(O)Cc1ccccc1
inactive: dose: 18.75 mg/kg/injection, schedule: Q01DX009 (ip), vehicle: acetone 95 % of control | dose: 37.5 mg/kg/injection, schedule: Q01DX009 (ip), vehicle: acetone 90 % of control | dose: 37.5 mg/kg/injection, schedule: Q04DX003 (ip), vehicle: acetone 96 % of control | dose: 75.0 mg/kg/injection, schedule: Q01DX001 (ip), vehicle: carboxymethylcellulose (CMC) 96 % of control | [15] 95 % of control | dose: 75.0 mg/kg/injection, schedule: Q01DX009 (ip), vehicle: acetone 90 % of control | dose: 75.0 mg/kg/injection, schedule: Q04DX003 (ip), vehicle: acetone 91 % of control | dose: 150.0 mg/kg/injection, schedule: Q01DX001 (ip), vehicle: carboxymethylcellulose (CMC) 94 % of control | [16] 93 % of control | dose: 150.0 mg/kg/injection, schedule: Q04DX003 (ip), vehicle: acetone 98 % of control

COc1ccc(OC)c(C(=O)CCCCC(=O)O)c1
inactive: [2] 95 % of control | [3] 93 % of control | [4] 104 % of control

COC(=O)/C=C(\C)C(C)=Nc1ccccc1
inactive: [8] 106 % of control | [9] 106 % of control

COc1ccc(C(=O)c2cc3cccc(OC)c3o2)cc1OC
inactive: dose: 75.0 mg/kg/injection, schedule: Q01DX009 (ip), vehicle: saline 87 % of control | [5] 102 % of control | dose: 150.0 mg/kg/injection, schedule: Q01DX009 (ip), vehicle: saline 92 % of control | [6] 94 % of control | dose: 300.0 mg/kg/injection, schedule: Q01DX009 (ip), vehicle: saline 93 % of control | [7] 93 % of control

C=CC1CC[N-]CC1.C=CC1CC[N-]CC1.C=CC1CC[N-]CC1.[Cl][Cr]([Cl])[Cl]
inactive: [13] 97 % of control | [14] 94 % of control

Cc1[nH]c2ccccc2c1C(c1cc(Cl)cc(Cl)c1O)c1c(C)[nH]c2ccccc12
inactive: dose: 100.0 mg/kg/injection, schedule: Q04DX002 (ip), vehicle: saline with Tween-80 87 % of control | dose: 200.0 mg/kg/injection, schedule: Q04DX002 (ip), vehicle: saline with Tween-80 94 % of control | dose: 400.0 mg/kg/injection, schedule: Q04DX002 (ip), vehicle: saline with Tween-80 91 % of control

COc1ccc(CC(N)C(=O)O)cc1 (stereo not given)
inactive: dose: 100.0 mg/kg/injection, schedule: Q01DX009 (ip), vehicle: Klucel (hydroxypropylcellulose) (HPC) 103 % of control | [2] 101 % of control | dose: 200.0 mg/kg/injection, schedule: Q01DX009 (ip), vehicle: Klucel (hydroxypropylcellulose) (HPC) 92 % of control | [3] 101 % of control | [4] 106 % of control
